Results reported in the NIST ThermoML archive (doi:10.1021/je300775u).
“And” between values parts separate entries of the source, which are not always exact repeats. Identical values can stand only once.

How the values were obtained:
[1] = 101.3 kPa, Liquid; for speed of sound: Pulse-echo method; for mass density: Vibrating tube method
[2] = xn = mol fraction of the nth substance listed; conditions: 101 kPa, Liquid; for speed of sound: Pulse-echo method; for mass density: Vibrating tube method

ClCBr [bromochloromethane]
[1]
Conditions | mass density [kg/m3] | speed of sound [m/s]
293.15 K | 1933.23 | 1001.2
298.15 K | 1921.71 | 986.1
303.15 K | 1910.15 | 971
308.15 K | 1898.51 | 955.9
313.15 K | 1886.82 | 940.8

ClC(Cl)(Cl)Br [bromotrichloromethane]
[1]
Conditions | mass density [kg/m3] | speed of sound [m/s]
293.15 K | 2013.06 | 917.1
298.15 K | 2002.14 | 903.6
303.15 K | 1991.2 | 890.2
308.15 K | 1980.24 | 876.8
313.15 K | 1969.25 | 863.6

ClC(Cl)(Cl)Br [bromotrichloromethane] + ClCBr
[2], x1 = 1
Conditions | mass density [kg/m3] | speed of sound [m/s]
293.15 K | 2013.06 | 917.1
298.15 K | 2002.14 | 903.6
303.15 K | 1991.2 | 890.2
308.15 K | 1980.24 | 876.8
313.15 K | 1969.25 | 863.6

BrCBr [dibromomethane]
[1]
Conditions | mass density [kg/m3] | speed of sound [m/s]
293.15 K | 2491.67 | 961.8
298.15 K | 2478.61 | 949.2
303.15 K | 2465.53 | 936.6
308.15 K | 2452.42 | 924
313.15 K | 2439.26 | 911.4

BrCBr [dibromomethane] + ClC(Cl)(Cl)Br
[2], x2 = 0
Conditions | mass density [kg/m3] | speed of sound [m/s]
293.15 K | 2491.67 | 961.8
298.15 K | 2478.61 | 949.2
303.15 K | 2465.53 | 936.6
308.15 K | 2452.42 | 924
313.15 K | 2439.26 | 911.4

CCCCCCC [heptane]
[1]
Conditions | mass density [kg/m3] | speed of sound
293.15 K | 683.84 | 1152.6 m/s and 1152.2 m/s
298.15 K | 679.6 | 1131 m/s and 1130.9 m/s
303.15 K | 675.33 | 1109.6 m/s and 1109.1 m/s
308.15 K | 671.04 | 1088.2 m/s and 1088.1 m/s
313.15 K | 666.71 | 1067.1 m/s and 1066.9 m/s

CCCCCCC [heptane] + BrCBr
[2], x2 = 0
Conditions | mass density [kg/m3] | speed of sound [m/s]
293.15 K | 683.84 | 1152.2
298.15 K | 679.6 | 1130.9
303.15 K | 675.33 | 1109.1
308.15 K | 671.04 | 1088.1
313.15 K | 666.71 | 1066.9

CCCCCCC [heptane] + ClC(Cl)(Cl)Br
[2], x2 = 0
Conditions | mass density [kg/m3] | speed of sound [m/s]
293.15 K | 683.84 | 1152.6
298.15 K | 679.6 | 1131
303.15 K | 675.33 | 1109.6
308.15 K | 671.04 | 1088.2
313.15 K | 666.71 | 1067.1
